From patent publication US9321756B2, “Azole compounds as PIM inhibitors” (priority 2011, dated 2016)
Like-named read-outs stand apart in the source and are kept apart here.

What was measured:
Format in all cases: biochemical
[1] = target: full length recombinant Pim-1 (Homo sapiens (Human), UniProt P11309); assay: Pim enzyme assay (HTRF, phosphorylation of biotinylated-BAD (S112) peptide), Pim-1; details: Pim-1 enzyme assay; read-out: Pim_1_IC50
[2] = target: full length recombinant Pim-2 (Homo sapiens (Human), UniProt Q9P1W9); assay: Pim enzyme assay (HTRF, phosphorylation of biotinylated-BAD (S112) peptide), Pim-2; details: read-out: Pim2_IC50
[3] = target: full length recombinant Pim-3 (Homo sapiens (Human), UniProt Q86V86); assay: Pim enzyme assay (HTRF, phosphorylation of biotinylated-BAD (S112) peptide), Pim-3; details: read-out: Pim3 IC50
Source text: Pim-3 was purchased from Millipore (UK).
The phosphorylation of biotinylated-BAD (S112) peptide by full length recombinant Pim-1, Pim-2, or Pim-3 protein was detected with streptavidin:Allophycocyanin (APC) conjugate and a europium (Eu) labeled antibody directed against phosphorylated-BAD (S112). […] The fluorescence is directly proportional to the amount of phosphorylated BAD peptide present in the reaction.
A reference compound was included on each assay plate in order to validate that plate; on one plate of every assay run, two additional reference compounds were included.
The final buffer conditions were as follows: 60 mM Hepes, pH 7.0, 0.05% BSA, 2 mM DTT. Incubations were carried out at RT (22° C.) for 2 h for Pim-1, 1 h and 30 min for Pim-3, and 45 min for Pim-2. The reaction was then stopped by the addition of 3 mM EDTA, and fluorescence was measured by an HTRF® Rubystar microplate reader. For each plate, percent of control (POC) values were calculated for each well. Values for the IC50 IP were estimated using a standard 4-parameter logistic model.

full length recombinant Pim-2, sequence (Q9P1W9 whole entry): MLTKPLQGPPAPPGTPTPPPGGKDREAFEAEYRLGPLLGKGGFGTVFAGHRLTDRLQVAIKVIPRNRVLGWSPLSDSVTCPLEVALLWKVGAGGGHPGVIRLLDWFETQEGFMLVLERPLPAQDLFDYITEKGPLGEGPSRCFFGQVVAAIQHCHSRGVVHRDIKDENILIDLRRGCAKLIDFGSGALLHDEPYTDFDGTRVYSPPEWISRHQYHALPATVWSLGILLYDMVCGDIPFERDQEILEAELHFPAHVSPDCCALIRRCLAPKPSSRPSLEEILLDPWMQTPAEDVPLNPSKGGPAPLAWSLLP
full length recombinant Pim-1, sequence (P11309 whole entry): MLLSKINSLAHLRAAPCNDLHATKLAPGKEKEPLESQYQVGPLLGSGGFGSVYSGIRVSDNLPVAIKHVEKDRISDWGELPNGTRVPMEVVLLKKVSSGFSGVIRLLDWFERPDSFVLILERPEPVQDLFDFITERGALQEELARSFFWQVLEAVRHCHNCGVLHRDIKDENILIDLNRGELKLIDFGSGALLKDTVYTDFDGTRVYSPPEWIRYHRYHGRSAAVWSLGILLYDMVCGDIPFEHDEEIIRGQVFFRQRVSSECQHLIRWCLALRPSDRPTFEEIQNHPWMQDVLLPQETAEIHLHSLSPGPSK

Structure (SMILES)	IC50 [1] [nM]	IC50 ([2]; Pim-2 enzyme assay) [nM]	IC50 ([3]; Pim-3 enzyme assay) [nM]	IC50 [2] [nM]	IC50 [3] [nM]
CNc1nnc(-c2ccc3[nH]cc(-c4cccc(F)n4)c3c2)s1 [Example 239, 5-(3-(6-fluoro-2-pyridinyl)-1H-indol-5-yl)-N-methyl-1,3,4-thiadiazol-2-amine]	1030	739	170		
CNc1nnc(-c2ccc3[nH]cc(-c4cccc(OC)c4)c3c2)s1 [Example 226, 5-(3-(3-methoxyphenyl)-1H-indol-5-yl)-N-methyl-1,3,4-thiadiazol-2-amine]	2450	> 3000	354		
CC(Nc1nnc(-c2ccc3[nH]cc(-c4cnccn4)c3c2)o1)c1ccccc1 (stereo not drawn) [Example 268, N-(1-phenylethyl)-5-(3-(2-pyrazinyl)-1H-indol-5-yl)-1,3,4-oxadiazol-2-amine]	171	559	81.2		
O=c1[nH]nc(-c2ccc3[nH]cc(-c4cncc(C5CC5)n4)c3c2)o1 [Example 38, 5-(3-(6-Cyclopropylpyrazin-2-yl)-1H-indol-5-yl)-1,3,4-oxadiazol-2(3H)-one 2,2,2-trifluoroacetate]	65.5			54.5	37.7
Nc1nnc(-c2ccc3[nH]cc(-c4cccc(C(F)(F)F)n4)c3c2)s1 [Example 182, 5-(3-(6-(trifluoromethyl)-2-pyridinyl)-1H-indol-5-yl)-1,3,4-thiadiazol-2-amine]	121	135	22.5		
CC(C)(Nc1nnc(-c2ccc3[nH]cc(-c4cncc(C5CC5)n4)c3c2)o1)c1ccccc1 [Example 50, 5-(3-(6-cyclopropylpyrazin-2-yl)-1H-indol-5-yl)-N-(2-phenylpropan-2-yl)-1,3,4-oxadiazol-2-amine]	57.7	302			14.4
Nc1nnc(-c2ccc3[nH]cc(-c4cc(C(=O)Nc5ccccc5)ccc4F)c3c2)s1 [Example 137, 3-(5-(5-amino-1,3,4-thiadiazol-2-yl)-1H-indol-3-yl)-4-fluoro-N-phenylbenzamide]	176	237	90.3		
Nc1cccc(-c2c[nH]c3ccc(-c4nnc(N)s4)cc23)n1 [Example 190, 6-(5-(5-amino-1,3,4-thiadiazol-2-yl)-1H-indol-3-yl)-2-pyridinamine]	705	977	186		
Nc1nnc(-c2ccc3[nH]cc(-c4cncc(Oc5ccccc5)n4)c3c2)o1 [Example 92, 5-(3-(6-phenoxy-2-pyrazinyl)-1H-indol-5-yl)-1,3,4-oxadiazol-2-amine]	25.9	46.6	12.3		
Cc1ccn(-c2cnc(-c3c[nH]c4ccc(-c5nnc(N)s5)cc34)cn2)n1 [Example 197, 5-(3-(5-(3-methyl-1H-pyrazol-1-yl)-2-pyrazinyl)-1H-indol-5-yl)-1,3,4-thiadiazol-2-amine]	2270	2900	836		
Nc1nnc(-c2ccc3[nH]cc(-c4ccccc4F)c3c2)o1 [Example 84, 5-(3-(2-fluorophenyl)-1H-indol-5-yl)-1,3,4-oxadiazol-2-amine]	92.6	140	26		
CCOc1cnc(-c2c[nH]c3ccc(-c4nnc(N)o4)cc23)cn1 [Example 86, 5-(3-(5-ethoxy-2-pyrazinyl)-1H-indol-5-yl)-1,3,4-oxadiazol-2-amine]	279	324	122		
Nc1nnc(-c2ccc3[nH]cc(-c4cnc(N5CCCC5)cn4)c3c2)s1 [Example 189, 5-(3-(5-(1-pyrrolidinyl)-2-pyrazinyl)-1H-indol-5-yl)-1,3,4-thiadiazol-2-amine]	564	690	73.2		
Nc1nnc(-c2ccc3[nH]cc(-c4cccc(F)n4)c3c2)s1 [Example 209, 5-(3-(6-fluoro-2-pyridinyl)-1H-indol-5-yl)-1,3,4-thiadiazol-2-amine]	705	558	149		
CNc1nnc(-c2ccc3[nH]cc(-c4c(F)cccc4F)c3c2)s1 [Example 237, 5-(3-(2,6-difluorophenyl)-1H-indol-5-yl)-N-methyl-1,3,4-thiadiazol-2-amine]	538	1220	227		
CC(C)Oc1cccc(-c2c[nH]c3ccc(-c4nnc(N)o4)cc23)c1 [Example 85, 5-(3-(3-(1-methylethoxy)phenyl)-1H-indol-5-yl)-1,3,4-oxadiazol-2-amine]	225	385	81.8		
